# Source: patent publication US20230092679A1, “MCL-1 INHIBITOR ANTIBODY-DRUG CONJUGATES AND METHODS OF USE” (NOVARTIS AG, priority 2019, published 2023)
# pIC50: −log10 of the molar value.
# Legend:
# AMO1-CD33 clone D2 = assay: CellTiter-Glo proliferation assay (Example 6); type: cell-based, human; settings: CD33 Mcl-1 ADCs and payload P1, 5 days
# Method: (§1) Mcl-1 ADCs were tested on nine endogenous cancer cell lines and one isogenic cell line engineered to overexpress a target of interest. Six targets were assessed: HER2, BCMA, CD38, CD48, CD79b, and CD33.
# (§2) Cell lines • HER2: HCC1954 (ATCC No. CRL-2338 cultured in RPMI-1640+10% FBS) and HCC2218 (ATCC No. CRL-2343 cultured in RPMI-1640+10% FBS). • BCMA: NCI-H929 (ATCC No. CRL-9068 cultured in RPMI-1640+10% FBS+0.05 mM 2-mercaptoethanol). • CD38: A4-Fuk (JCRB No. JCRB0097 cultured in RPMI-1640+10% FBS) and KMS-21 BM (JCRB No. JCRB1185 cultured in RPMI-1640+10% FBS). • CD48: NCI-H929 (ATCC No. CRL-9068 cultured in RPMI-1640+10% FBS+0.05 mM 2-mercaptoethanol), OPM-2 (DSMZ No. ACC-50 cultured in RPMI-1640+10% FBS) and AMO1 (DSMZ No. ACC-538 cultured in RPMI-1640+20% FBS). • CD79b: RS4;11 (ATCC No. CRL-1873 cultured in RPMI-1640+10% FBS). • CD33: MOLM-13 (DSMZ No. ACC-554 cultured in RPMI-1640+10% FBS) and an isogenic cell line, AMO1-CD33 clone D2. AMO1 cell line was transfected to generate a stable AMO1 cell line expressing the exogenous protein of interest, CD33, AMO1-CD33 clone D2 (cultured in RPMI-1640+20% FBS).
# (§3) The ability of Mcl-1 ADCs to inhibit cell proliferation and survival was assessed using a Promega CellTiter-Glo® proliferation assay. Cell lines were cultured in media optimal for their growth at 5% CO2, 37° C. in a tissue culture incubator. Prior to seeding for the proliferation assay, the cells were split at least 2 days before the assay to ensure optimal growth density. On the day of seeding, adherent cells were lifted off tissue culture flasks using 0.25% trypsin. Cell viability and cell density were determined using a cell counter (Vi-Cell XR Cell Viability Analyzer, Beckman Coulter). […] Cells were seeded at a density of 1,000 cells per well in 45 μl of standard growth media. Plates were incubated at 5% CO2, 37° C. overnight in a tissue culture incubator. The next day, free Mcl-1 payload (P1), targeting Mcl-1 ADCs, and non-targeting isotype ADCs were prepared at 10× in standard growth media. The prepared drug treatments were then added to the cells resulting in final concentrations of 0.0005-500 nM and a final volume of 50 μl per well. Each drug concentration was tested in quadruplets. Plates were incubated at 5% CO2, 37° C. for 5 days in a tissue culture incubator, after which cell viability was assessed through the addition of 25 μl of CellTiter Glo® (Promega, Cat. No. G7573), a reagent which lyses cells and measures total adenosine triphosphate (ATP) content. Plates were incubated at room temperature for 10 minutes to stabilize luminescent signals prior to reading using a luminescence reader (EnVision Multilabel Plate Reader, PerkinElmer). […]
# AMO1 = assay: CellTiter-Glo proliferation assay (Example 6); type: cell-based, human; settings: CD48 Mcl-1 ADCs and payload P1, 5 days
# Method: as §1, §2, §3
# KMS-20 = assay: CellTiter-Glo proliferation assay, anti-CD48 ADCs (Example 18); type: cell-based; settings: KMS-20, 5 days
# Method: (§4) The CD48 MCL-1 antibody drug conjugate CD48-L7-P1, isotype IgG1-L7-P1 ADC, and MCL-1 free payload P1 were tested against four endogenous cancer cell lines. KMS-21 BM (JCRB No. JCRB11185 cultured in RPMI-1640+10% FBS), KMS-20 (JCRB No. JCRB1196 cultured in RPMI-1640+10% FBS), KMS-27 (JCRB No. JCRB1188 cultured in RPMI-1640+10% FBS), and NCI-H929 (ATCC No. CRL-9068 cultured in RPMI-1640+10% FBS+0.05 mM 2-mercaptoethanol).
# (§5) The ability of the CD48 MCL-1 antibody drug conjugate CD48-L7-P1, isotype IgG1-L7-P1 ADC, and MCL-1 free payload P1 to inhibit cell proliferation and survival was assessed using the Promega CellTiter-Glo® proliferation assay.
# (§6) Cell lines were cultured in media that is optimal for their growth at 5% CO2, 37° C. in a tissue culture incubator. Prior to seeding for the proliferation assay, the cells were split at least 2 days before the assay to ensure optimal growth density. On the day of seeding, suspension cells were harvested. Cell viability and cell density were determined using a cell counter (Vi-Cell XR Cell Viability Analyzer, Beckman Coulter). […] Cells were seeded at a density of 1,000 cells per well in 45 μL of standard growth media. Plates were incubated at 5% CO2, 37° C. overnight in a tissue culture incubator. The next day, free MCL-1 payload (P1), targeting MCL-1 ADC, and non-targeting isotype ADCs were prepared at 10× in standard growth media. The prepared drug treatments were then added to the cells resulting in final concentrations of 0.0005-500 nM and a final volume of 50 μL per well. Each drug concentration was tested in quadruplets. Plates were incubated at 5% CO2, 37° C. for 5 days in a tissue culture incubator, after which cell viability was assessed through the addition of 25 μL of CellTiter Glo® (Promega, cat #G7573), a reagent which lyses cells and measures total adenosine triphosphate (ATP) content. Plates were incubated at room temperature for 10 minutes to stabilize luminescent signals prior to reading using a luminescence reader (EnVision Multilabel Plate Reader, PerkinElmer). To evaluate the effect of the drug treatments, luminescent counts from wells containing untreated cells (100% viability) were used to normalize treated samples. A variable slope model was applied to fit a nonlinear regression curve to the data in GraphPad PRISM version 7.02 software. IC50 and Amax values were extrapolated from the resultant curves.
# (§7) The dose response curves of representative cancer cell lines expressing the CD48 target of interest are shown in FIG. 22 (square=CD48-L7-P1, circle IgG-L7-P1, triangle=free MCL1 payload P1).
# KMS-21 BM = assay: as above; type: cell-based; settings: 5 days
# Method: as §4, §5, §6, §7
# NCI-H929 = assay: as above; type: cell-based; settings: NCI-H929, 5 days
# Method: as §4, §5, §6, §7
smiles,measurement,setting,value
"COc1ccccc1-c1nccc(COc2ccccc2C[C@@H](Oc2ncnc3sc(-c4ccc(F)cc4)c(-c4ccc(OCCN5CCN(C)CC5)c(Cl)c4C)c23)C(=O)O)n1 [P1, (2R)-2-[5-[3-chloro-2-methyl-4-[2-(4-methylpiperazin-1-yl)ethoxy]phenyl]-6-(4-fluorophenyl)thieno[2,3-d]pyrimidin-4-yl]oxy-3-[2-[[2-(2-methoxyphenyl)pyrimidin-4-yl]methoxy]phenyl]propanoic acid]",Amax AMO1-CD33,AMO1-CD33 clone D2,103.00
same,IC50,"AMO1-CD33 clone D2; Homo sapiens, 120 h",1.53 nM
same,Amax AMO1,AMO1,19.97
same,IC50,"AMO1; Homo sapiens, AMO1, 120 h",0.038 nM
same,pIC50,KMS-20; 120 h,8.31
same,Amax,KMS-20; in %,94.34
same,pIC50,KMS-21 BM; 120 h,9.03
same,Amax,KMS-21 BM; in %,85.27
same,pIC50,"NCI-H929; Homo sapiens, 120 h",8.69
same,Amax,NCI-H929; in %,109.1
